Calls of active or inactive are those of the source. The rule behind the calls is not given here.
Experiments:
[1] = test system: RAW264.7; assay: Antiinflammatory activity in mouse RAW264.7 cells; format: functional, cell-based
[2] = test system: Escherichia coli; assay: Antibacterial activity against Escherichia coli KCTC 2441; format: functional
[3] = test system: Bacillus subtilis; assay: Antibacterial activity against Bacillus subtilis KCTC 1021; format: functional
[4] = test system: Salmonella typhimurium; assay: Antibacterial activity against Salmonella typhimurium KCTC 2515; format: functional, Salmonella enterica subsp. enterica serovar Typhimurium; details: Salmonella enterica
[5] = test system: Staphylococcus aureus; assay: Antibacterial activity against Staphylococcus aureus KCTC 1927; format: functional
[6] = test system: Micrococcus luteus; assay: Antibacterial activity against Micrococcus luteus KCTC 1915; format: functional
[7] = test system: Klebsiella pneumoniae; assay: Antibacterial activity against Klebsiella pneumoniae KCTC 2690; format: functional

| Structure (SMILES) | Activity [1] | MIC [2] [µg/mL] | MIC [3] [µg/mL] | MIC [4] [µg/mL] | MIC [5] [µg/mL] | MIC [6] [µg/mL] | MIC [7] [µg/mL] |
| --- | --- | --- | --- | --- | --- | --- | --- |
| CCCCCCCC/C=C\C/C=C\CCC[C@H](C)[C@H]1OC[C@H](CO)O1 | inactive | > 128 | > 128 | > 128 | > 128 | > 128 | > 128 |
| CCCCCCCCC/C=C\C/C=C\CCC[C@H](C)[C@H]1OC[C@H](CO)O1 | inactive | > 128 | > 128 | > 128 | > 128 | > 128 | > 128 |
| CCCCCCCCCC/C=C\C/C=C\CCC[C@H](C)[C@H]1OC[C@H](CO)O1 | inactive | > 128 | > 128 | > 128 | > 128 | > 128 | > 128 |
| CCCCCCCCCCC/C=C\CCC[C@H](C)[C@H]1OC[C@H](CO)O1 | inactive | > 128 | > 128 | > 128 | > 128 | > 128 | > 128 |
| CCCCCCCCCCC/C=C\C=C\C(O)CC[C@H](C)[C@H]1OC[C@H](CO)O1 (stereo not given in full) | inactive | > 128 | > 128 | > 128 | > 128 | > 128 | > 128 |

Reference: ChEMBL document CHEMBL5584286, “Structure Determination of 1,3-Dioxolane-Containing Lipids from the Marine Sponge Leucetta sp. Using Chiral 1H NMR Analysis of Model Systems” (2024)
